# In US20250262315A1 (priority 2021, published 2025):
# Columns and labels:
# [1] = target: T1, human neutrophil elastase (Homo sapiens, UniProt P08246); test: Human neutrophil protease-mediated cleavage assay using pyrene probes: neutrophil elastase; type: biochemical; details: 37° C.; for stability against degradation mediated by neutrophil elastase or mouse plasma (in words): additional probes; for stability against human neutrophil elastase-mediated degradation (in words): pyrene probes; for % intact probe, Neutrophil elastase: after incubation for 24 h, n = 2, mean ± SEM
# T1 construct: purchased MilliporeSigma
# T1 sequence (P08246 30-267): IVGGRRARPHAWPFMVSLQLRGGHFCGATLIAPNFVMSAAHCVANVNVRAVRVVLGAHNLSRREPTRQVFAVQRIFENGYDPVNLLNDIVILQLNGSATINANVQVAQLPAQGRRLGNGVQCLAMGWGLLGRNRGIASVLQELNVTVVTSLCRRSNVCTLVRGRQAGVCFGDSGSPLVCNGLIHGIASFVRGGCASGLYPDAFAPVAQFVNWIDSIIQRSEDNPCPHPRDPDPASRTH
# Description: (§1) Human neutrophil protease-mediated cleavage assay using pyrene probes. Each test compound (10 mM in DMSO, 2 μL) was mixed with 97 μL of tris-buffered saline (TBS, pH 7.4) and 1 μL of 1-pyrenemethylamine (10 mM in DMSO, internal standard). The mixture was incubated at 37° C. for 10 min. Human neutrophil elastase (40 ng μL^−1, 20 μL in TBS, MilliporeSigma), human proteinase 3 (250 ng μL^−1, 5 μL in TBS, MilliporeSigma) or human cathepsin G (330 ng μL^−1, 5 μL in TBS, MilliporeSigma) was added to the test compound mixture in 1:1 volume ratio, followed by incubation at 37° C. Aliquots (5 μL) were collected at each time point (0, 1, 3, 6, and 24 h for elastase; 0 and 24 h for proteinase 3 and cathepsin G). Cold acetonitrile containing 1% formic acid (25 μL) was added to precipitate proteins. The mixture was then kept at −20° C. for 30 min. Precipitated proteins were pelleted by centrifugation (15,000×g, 4° C., 30 min) and supernatant of each sample was analyzed for quantification by analytical HPLC (UV absorbance at 342 nm). The amount of each probe was normalized to the peak area of the internal standard. All assays were performed at least three times in technical duplicate, and data shown are representative of the replicates.
# [2] = Plasma stability test using pyrene probes, BALB/c mouse plasma; type: in vitro ADME; details: 37° C.; for stability in undiluted BALB/c plasma (in words): pyrene probes; for % intact probe, 48 h incubation, Mouse / % intact probe, 96 h incubation, Mouse: undiluted mouse plasma; for % intact probe, 96 h incubation, Mouse: 96 h (4-day)
# Description: (§2) Plasma stability test using pyrene probes. Each test compound (10 mM in DMSO, 2 μL) was mixed with 1 μL of 1-pyrenemethylamine (10 mM in DMSO, internal standard) and incubated at 37° C. for 10 min. Pooled healthy human plasma, monkey cynomolgus plasma or BALB/c mouse plasma (197 μL, Innovative Research) was added to the mixture, followed by incubation at 37° C. Aliquots (5 μL) were collected at each time point (0, 48, and 96 h for human and monkey cynomolgus plasma; 0, 1, 6, 24, 48, and 96 h for BALB/c mouse plasma) and 25 μL of cold acetonitrile containing 1% formic acid was added to precipitate proteins. The mixture was then kept at −20° C. for 30 min. Precipitated proteins were separated by centrifugation (15,000×g, 4° C., 30 min) and supernatant of each sample was obtained and analyzed for quantification by analytical HPLC as described above. All assays were performed at least three times in technical duplicate, and data shown are representative of the replicates.
# human proteinase 3 [3] = target: T2, human proteinase 3 (Homo sapiens, UniProt P24158); test: Human neutrophil protease-mediated cleavage assay using pyrene probes: proteinase 3; type: biochemical; details: for % intact probe, Proteinase 3: after incubation for 24 h, 37° C., n = 2, mean ± SEM; for resistance to cleavage by human proteinase 3 (in words): pyrene probes
# T2 construct: purchased MilliporeSigma
# T2 sequence (P24158 28-248): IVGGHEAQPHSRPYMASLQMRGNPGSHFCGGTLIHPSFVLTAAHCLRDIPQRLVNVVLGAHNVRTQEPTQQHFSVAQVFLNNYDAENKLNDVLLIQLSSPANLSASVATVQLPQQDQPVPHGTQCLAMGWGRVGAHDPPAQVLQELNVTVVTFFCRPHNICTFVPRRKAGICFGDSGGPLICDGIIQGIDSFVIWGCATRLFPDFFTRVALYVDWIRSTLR
# Description: as §1
# human cathepsin G [4] = target: T3, human cathepsin G (Homo sapiens, UniProt P08311); test: Human neutrophil protease-mediated cleavage assay using pyrene probes: cathepsin G; type: biochemical; details: for % intact probe, Cathepsin G: after incubation for 24 h, 37° C., n = 2, mean ± SEM
# T3 construct: purchased MilliporeSigma
# T3 sequence (P08311 21-244): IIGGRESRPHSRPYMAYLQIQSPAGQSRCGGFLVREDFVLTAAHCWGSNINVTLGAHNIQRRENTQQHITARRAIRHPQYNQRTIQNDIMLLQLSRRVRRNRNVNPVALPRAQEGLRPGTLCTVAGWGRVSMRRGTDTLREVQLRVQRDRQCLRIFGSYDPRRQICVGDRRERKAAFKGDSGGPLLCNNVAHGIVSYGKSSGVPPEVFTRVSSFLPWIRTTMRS
# Description: as §1
# [5] = Plasma stability test using pyrene probes, human plasma; type: in vitro ADME; details: for % intact probe, 48 h incubation, Human / % intact probe, 96 h incubation, Human: undiluted human plasma, 37° C.
# Description: as §2
# [6] = Plasma stability test using pyrene probes, monkey plasma; type: in vitro ADME, cynomolgus monkey; details: for % intact probe, 48 h incubation, Monkey / % intact probe, 96 h incubation, Monkey: undiluted monkey plasma, 37° C.
# Description: as §2
# monkey cynomolgus plasma = details: 37° C., up to 96 h
# [7] = Pooled healthy human plasma; details: 37° C., up to 96 h
# human cathepsin G [8] = test: human cathepsin G in tris-buffered saline (TBS, pH 7.4); details: 37° C., up to 24 h
# human proteinase 3 [9] = test: human proteinase 3 in tris-buffered saline (TBS, pH 7.4); details: 37° C., up to 24 h
# [10] = system: Human neutrophil elastase; test: human neutrophil elastase in tris-buffered saline (TBS, pH 7.4); details: 37° C., up to 24 h
substance,measurement,setting,value
Ac-Glu-(N-Me)Val-Cit-PABC-sar-pyrene [S1b],stability against degradation mediated by neutrophil elastase or mouse plasma (in words),[1],instability
Ac-Glu-Ala-Cit-PABC-sar-pyrene [probe 3b],stability against human neutrophil elastase-mediated degradation (in words),[1],complete degradation
same,stability in undiluted BALB/c plasma (in words),[2],improved stability compared to EVCit probe 2
Ac-Glu-Gly-Cit-PABC-sar-pyrene [EGCit 3a],"% intact probe, Neutrophil elastase",[1],99.2 ± 0.3%
same,stability against human neutrophil elastase-mediated degradation (in words),[1],marginal or almost no degradation
same,"% intact probe, Proteinase 3",human proteinase 3 [3],98.0 ± 1.1%
same,resistance to cleavage by human proteinase 3 (in words),human proteinase 3 [3],completely intact
same,"% intact probe, Cathepsin G",human cathepsin G [4],100.0 ± 1.8%
same,resistance to cleavage by cathepsin G (in words),human cathepsin G [4]; pyrene probes,completely intact
same,degradation in human plasma (in words),[5]; pyrene probes,completely withstood degradation
same,"% intact probe, 48 h incubation, Human",[5],96.5%
same,"% intact probe, 96 h incubation, Human",[5],100.3%
same,degradation in monkey plasma (in words),[6]; pyrene probes,completely withstood degradation
same,"% intact probe, 48 h incubation, Monkey",[6],98.7%
same,"% intact probe, 96 h incubation, Monkey",[6],98.8%
same,stability in undiluted BALB/c plasma (in words),[2],improved stability compared to EVCit probe 2
same,"% intact probe, 48 h incubation, Mouse",[2],69.2%
same,"% intact probe, 96 h incubation, Mouse",[2],40.3%
same,"% intact probe, 96 h incubation, Mouse",[2]; listed as EGCit probe 3a,40%
Ac-Glu-Ile-Cit-PABC-sar-pyrene [probe 3d],stability against human neutrophil elastase-mediated degradation (in words),[1],complete degradation
Ac-Glu-Leu-Cit-PABC-sar-pyrene [probe 3c],stability against human neutrophil elastase-mediated degradation (in words),[1],marginal or almost no degradation
Ac-Glu-Phe-Cit-PABC-sar-pyrene [S1a],stability against degradation mediated by neutrophil elastase or mouse plasma (in words),[1],instability
Ac-Glu-Val-(N-Me)Cit-PABC-sar-pyrene [EV(N-Me)Cit 3e],"% intact probe, Neutrophil elastase",[1],99.0 ± 2.4%
same,stability against human neutrophil elastase-mediated degradation (in words),[1],marginal or almost no degradation
same,"% intact probe, Proteinase 3",human proteinase 3 [3],84.4 ± 0.9%
same,resistance to cleavage by human proteinase 3 (in words),human proteinase 3 [3],partially degraded
same,"% intact probe, Cathepsin G",human cathepsin G [4],99.6 ± 0.3%
same,"% intact probe, 48 h incubation, Human",[5],99.5%
same,"% intact probe, 96 h incubation, Human",[5],86.4%
same,"% intact probe, 48 h incubation, Monkey",[6],97.8%
same,"% intact probe, 96 h incubation, Monkey",[6],91.9%
same,stability in undiluted BALB/c plasma (in words),[2],improved stability compared to EVCit probe 2
same,"% intact probe, 48 h incubation, Mouse",[2],37.8%
same,"% intact probe, 96 h incubation, Mouse",[2],12.0%
Ac-Gly-Cit-PABC-sar-pyrene [probe 3f],stability against human neutrophil elastase-mediated degradation (in words),[1],marginal or almost no degradation
same,stability in undiluted BALB/c plasma (in words),[2],less stable than the EGCit probe 3a
Ac-Val-(N-Me)Cit-PABC-sar-pyrene [S1d],stability against degradation mediated by neutrophil elastase or mouse plasma (in words),[1],instability
EGCit,not cleaved,monkey cynomolgus plasma,98.8 ± 1.6 % intact probe after 96 h
same,not cleaved,[7],100.3 ± 5.5 % intact probe after 96 h
same,not cleaved,human cathepsin G [8],100.0 ± 1.8 % intact probe after 24 h
same,not cleaved,human proteinase 3 [9],98.0 ± 1.1 % intact probe after 24 h
same,not cleaved,[10],99.2 ± 0.3 % intact probe after 24 h
ELCit,not cleaved,[10],marginal or almost no degradation
EV(N-Me)Cit-PABC-pyrene,not cleaved,monkey cynomolgus plasma,91.9 ± 1.2 % intact probe after 96 h
same,not cleaved,human cathepsin G [8],99.6 ± 0.3 % intact probe after 24 h
same,not cleaved,[10],99.0 ± 2.4 % intact probe after 24 h
EVCit,not cleaved,monkey cynomolgus plasma,95.8 ± 1.8 % intact probe after 96 h
same,not cleaved,[7],91.1 ± 1.1 % intact probe after 96 h
same,cleaved bond,[10],valine-citrulline
GCit,not cleaved,[10],marginal or almost no degradation
VCit-PABC-pyrene,cleaved bond,[10],"valine-citrulline, major"
